# Laboratory results taken from US20250213701A1, “MEDICAMENT FOR TREATING HUMAN TUMOR BASED ON ERF3A-TARGETING PROTEOLYSIS MECHANISM” (SUZHOU DEGEN BIO-MEDICAL CO., LTD., priority 2022, published 2025).
# Tests used:
# Assay type in all cases: cell-based, human
# VCaP cells = assay: Anti-proliferative toxicity against prostate cancer cell line Vcap (CCK8); details: 3 days; for IC50: Homo sapiens, 72 h, CCK8
# Method in brief: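 VCaP cells (DMEM, 10% FBS) seeded 20000 cells/well, cultured 72 h, then exposed in triplicate to compound at final well concentrations of 0.00001–0.16 μM for 3 days at 37 °C, 5% CO2. Viability by CCK8, 1–4 h at 37 °C, absorbance at 450 nm.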
# 22Rv1 cells = assay: Anti-proliferative toxicity against prostate cancer cell line 22Rv1 (CCK8); details: 3 days; for IC50: Homo sapiens, 72 h, CCK8
# Method in brief: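 22Rv1 cells pre-cultured for 48 h, then exposed to compounds at 0.00001-1.0 μM final, in triplicate, for 3 days. Viability read by CCK8 absorbance at 450 nm after 1-4 h at 37 °C.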
# PC-3 cells = assay: Anti-proliferative toxicity against prostate cancer cell line PC-3 (CCK8); details: Homo sapiens, 72 h, 3 days
# Method in brief: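 PC-3 cells (4000/well, pre-cultured 24 h) exposed in triplicate to compound at final 0.00001-1.0 μM for 3 days at 37 °C, 5% CO2. Viability read by CCK8, 1-4 h at 37 °C, absorbance at 450 nm.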
Structure (SMILES),IC50 (VCaP cells),IC50 (22Rv1 cells),IC50 (PC-3 cells),other results
"C[C@]12C=CC(=O)N[C@@H]1CC[C@@H]1[C@@H]2CC[C@]2(C)[C@@H](C(=O)Nc3ccc(Cl)c(OCCCNc4cccc5c4C(=O)N(C4CCC(=O)NC4=O)C5=O)c3)CC[C@@H]12 (stereo partly drawn) [C51, N-(3-((3-((4-(2-(3-(2,6-dioxopiperidine))-isoindole-1,3-dione))amino)propyl)oxy)-4-chloro-phenyl)-3-oxo-4-aza-5α-androst-1-ene-17β-carboxamide]",> 1000 nM,> 1000 nM,> 1000 nM,
"C[C@]12C=CC(=O)N[C@@H]1CC[C@@H]1[C@@H]2CC[C@]2(C)[C@@H](C(=O)Nc3cccc(OCCCCNc4ccc5c(c4)C(=O)N(C4CCC(=O)NC4=O)C5=O)c3)CC[C@@H]12 (stereo partly drawn) [C32, N-(3-((4-((5-(2-(3-(2,6-dioxopiperidine))-isoindole-1,3-dione))amino)butyl)oxy)phenyl)-3-oxo-4-aza-5α-androst-1-ene-17β-carboxamide]",> 1000 nM,> 1000 nM,> 1000 nM,
"C[C@]12C=CC(=O)N[C@@H]1CC[C@@H]1[C@@H]2CC[C@]2(C)[C@@H](C(=O)NCCCNc3ccc4c(c3)C(=O)N(C3CCC(=O)NC3=O)C4=O)CC[C@@H]12 (stereo partly drawn) [C4, N-(3-((5-(2-(3-(2,6-dioxopiperidine))-isoindole-1,3-dione))amino)propyl)-3-oxo-4-aza-5α-androst-1-ene-17β-carboxamide]",> 1000 nM,> 1000 nM,> 1000 nM,
"C[C@]12C=CC(=O)N[C@@H]1CC[C@@H]1[C@@H]2CC[C@]2(C)[C@@H](C(=O)Nc3cccc(N4CCC(CNc5cccc6c5C(=O)N(C5CCC(=O)NC5=O)C6=O)CC4)c3)CC[C@@H]12 (stereo partly drawn) [C48, N-(3-(4-(((4-(2-(3-(2,6-dioxopiperidine))-isoindole-1,3-dione))amino)methyl)piperidine)phenyl)-3-oxo-4-aza-5α-androst-1-ene-17β-carboxamide]",> 1000 nM,> 1000 nM,> 1000 nM,
"C[C@]12C=CC(=O)N[C@@H]1CC[C@@H]1[C@@H]2CC[C@]2(C)[C@@H](C(=O)NCCCCCNc3cccc4c3C(=O)N(C3CCC(=O)NC3=O)C4=O)CC[C@@H]12 (stereo partly drawn) [C7, N-(5-((4-(2-(3-(2,6-dioxopiperidine))-isoindole-1,3-dione))amino)pentyl)-3-oxo-4-aza-5α-androst-1-ene-17β-carboxamide]",> 1000 nM,> 1000 nM,> 1000 nM,
"CC1[C@H](Nc2cccc(NC(=O)[C@H]3CC[C@H]4[C@@H]5CC[C@H]6NC(=O)C=C[C@]6(C)[C@H]5CC[C@]34C)c2)CCC[C@H]1Nc1cccc2c1C(=O)N(C1CCC(=O)NC1=O)C2=O (stereo partly drawn) [C69, N-(3-(N—(N-(4-(2-(3-(2,6-dioxopiperidine))-isoindole-1,3-dione))-2-methyl-1R,3R-cyclohexanediamine))phenyl)-3-oxo-4-aza-5α-androst-1-ene-17β-carboxamide]",0.1 to 10 nM,0.1 to 10 nM,10 to 1000 nM,
"C[C@]12C=CC(=O)N[C@@H]1CC[C@@H]1[C@@H]2CC[C@]2(C)[C@@H](C(=O)Nc3cccc(NCCCNc4cccc5c4C(=O)N(C4CCC(=O)NC4=O)C5=O)c3)CC[C@@H]12 (stereo partly drawn) [C50, N-(3-((3-((4-(2-(3-(2,6-dioxopiperidine))-isoindole-1,3-dione))amino)propyl)amino)phenyl)-3-oxo-4-aza-5α-androst-1-ene-17β-carboxamide]",0.1 to 10 nM,0.1 to 10 nM,10 to 1000 nM,Anti-proliferative toxicity data in VCaP cells (VCaP cells; 0.00005 μM): 1.2%; Anti-proliferative toxicity data in VCaP cells (VCaP cells; 0.00010 μM): 22.8%; Anti-proliferative toxicity data in VCaP cells (VCaP cells; 0.00030 μM): 72.3%; Anti-proliferative toxicity data in VCaP cells (VCaP cells; 0.00100 μM): 86.6%; Anti-proliferative toxicity data in VCaP cells (VCaP cells; 0.00300 μM): 90.5%; Anti-proliferative toxicity data in VCaP cells (VCaP cells; 0.00600 μM): 90.7%; Anti-proliferative toxicity data in VCaP cells (VCaP cells; 0.03200 μM): 91.5%; Anti-proliferative toxicity data in VCaP cells (VCaP cells; 0.16000 μM): 91.7%; Anti-proliferative toxicity data in 22Rv1 cells (22Rv1 cells; 0.00006 μM): 6.6%; Anti-proliferative toxicity data in 22Rv1 cells (22Rv1 cells; 0.00032 μM): 45.2%; Anti-proliferative toxicity data in 22Rv1 cells (22Rv1 cells; 0.00160 μM): 78.4%; Anti-proliferative toxicity data in 22Rv1 cells (22Rv1 cells; 0.00800 μM): 80.7%; Anti-proliferative toxicity data in 22Rv1 cells (22Rv1 cells; 0.04000 μM): 75.0%; Anti-proliferative toxicity data in 22Rv1 cells (22Rv1 cells; 0.20000 μM): 80.6%; Anti-proliferative toxicity data in 22Rv1 cells (22Rv1 cells; 1.00000 μM): 81.5%
"C[C@]12C=CC(=O)N[C@@H]1CC[C@@H]1[C@@H]2CC[C@]2(C)[C@@H](C(=O)Nc3cccc(OCCCNc4cccc5c4CN(C4CCC(=O)NC4=O)C5=O)c3)CC[C@@H]12 (stereo partly drawn) [C41, N-(3-((3-((4-(2-(3-(2,6-dioxopiperidine))-1-oxo-2,3-dihydro-1H-isoindol))amino)propyl)oxy)phenyl)-3-oxo-4-aza-5α-androst-1-ene-17β-carboxamide]",0.1 to 10 nM,0.1 to 10 nM,> 1000 nM,
"C[C@]12C=CC(=O)N[C@@H]1CC[C@@H]1[C@@H]2CC[C@]2(C)[C@@H](C(=O)Nc3cccc(N[C@@H]4CCC[C@@H](Nc5cccc6c5CN([C@H]5CCC(=O)NC5=O)C6=O)C4)c3)CC[C@@H]12 [C65, N-(3-(N—(N-(4-(2-(3S-(2,6-dioxopiperidine))-1-oxo-2,3-dihydro-1H-isoindol))-1R,3R-cyclohexanediamine))phenyl)-3-oxo-4-aza-5α-androst-1-ene-17β-carboxamide]",10 to 1000 nM,10 to 1000 nM,> 1000 nM,
"CC(C)(C)C(=O)OCN1C(=O)CCC(N2C(=O)c3cccc(NCCCOc4cccc(NC(=O)[C@H]5CC[C@H]6[C@@H]7CC[C@H]8NC(=O)C=C[C@]8(C)[C@H]7CC[C@]56C)c4)c3C2=O)C1=O (stereo partly drawn) [C49, N-(3-((3-((4-(2-(3-(1-pivaloyloxymethyl-2,6-dioxopiperidine))-isoindole-1,3-dione))amino)propyl)oxy)phenyl)-3-oxo-4-aza-5α-androst-1-ene-17β-carboxamide]",0.1 to 10 nM,0.1 to 10 nM,> 1000 nM,
"C[C@]12C=CC(=O)N[C@@H]1CC[C@@H]1[C@@H]2CC[C@]2(C)[C@@H](C(=O)Nc3cccc(N[C@@H]4CCC[C@@H](Nc5cc(F)cc6c5C(=O)N(C5CCC(=O)NC5=O)C6=O)C4)c3)CC[C@@H]12 (stereo partly drawn) [C79, N-(3-(N—(N-(6-fluoro-4-(2-(3-(2,6-dioxopiperidine))-isoindole-1,3-dione))-1R,3R-cyclohexanediamine))phenyl)-3-oxo-4-aza-5α-androst-1-ene-17β-carboxamide]",0.1 to 10 nM,0.1 to 10 nM,0.1 to 10 nM,
"C[C@]12C=CC(=O)N[C@@H]1CC[C@@H]1[C@@H]2CC[C@]2(C)[C@@H](C(=O)Nc3cccc(OCCCNc4cccc5c4C(=O)N(C4CCC(=O)NC4=O)C5=O)c3)CC[C@@H]12 (stereo partly drawn) [C29, N-(3-((3-((4-(2-(3-(2,6-dioxopiperidine))-isoindole-1,3-dione))amino)propyl)oxy)phenyl)-3-oxo-4-aza-5α-androst-1-ene-17β-carboxamide]",0.1 to 10 nM,0.1 to 10 nM,> 1000 nM,Anti-proliferative toxicity data in VCaP cells (VCaP cells; 0.00005 μM): 0.4%; Anti-proliferative toxicity data in VCaP cells (VCaP cells; 0.00010 μM): 25.8%; Anti-proliferative toxicity data in VCaP cells (VCaP cells; 0.00030 μM): 40.3%; Anti-proliferative toxicity data in VCaP cells (VCaP cells; 0.00100 μM): 70.8%; Anti-proliferative toxicity data in VCaP cells (VCaP cells; 0.00300 μM): 80.1%; Anti-proliferative toxicity data in VCaP cells (VCaP cells; 0.00600 μM): 88.3%; Anti-proliferative toxicity data in VCaP cells (VCaP cells; 0.03200 μM): 89.4%; Anti-proliferative toxicity data in VCaP cells (VCaP cells; 0.16000 μM): 90.0%; Anti-proliferative toxicity data in 22Rv1 cells (22Rv1 cells; 0.00006 μM): 0.2%; Anti-proliferative toxicity data in 22Rv1 cells (22Rv1 cells; 0.00032 μM): 5.6%; Anti-proliferative toxicity data in 22Rv1 cells (22Rv1 cells; 0.00160 μM): 27.6%; Anti-proliferative toxicity data in 22Rv1 cells (22Rv1 cells; 0.00800 μM): 64.2%; Anti-proliferative toxicity data in 22Rv1 cells (22Rv1 cells; 0.04000 μM): 70.8%; Anti-proliferative toxicity data in 22Rv1 cells (22Rv1 cells; 0.20000 μM): 72.4%; Anti-proliferative toxicity data in 22Rv1 cells (22Rv1 cells; 1.00000 μM): 73.5%
"C[C@]12C=CC(=O)N[C@@H]1CC[C@@H]1[C@@H]2CC[C@]2(C)[C@@H](C(=O)Nc3ccc(OCCCCCCCCNc4cccc5c4C(=O)N(C4CCC(=O)NC4=O)C5=O)cc3)CC[C@@H]12 (stereo partly drawn) [C25, N-(4-((8-((4-(2-(3-(2,6-dioxopiperidine))-isoindole-1,3-dione))amino)octyl)oxy)phenyl)-3-oxo-4-aza-5α-androst-1-ene-17β-carboxamide]",> 1000 nM,> 1000 nM,> 1000 nM,
"C[C@]12C=CC(=O)N[C@@H]1CC[C@@H]1[C@@H]2CC[C@]2(C)[C@@H](C(=O)Nc3ccc(OCCNc4cccc5c4C(=O)N(C4CCC(=O)NC4=O)C5=O)cc3)CC[C@@H]12 (stereo partly drawn) [C15, N-(4-((2-((4-(2-(3-(2,6-dioxopiperidine))-isoindole-1,3-dione))amino)ethyl)oxy)phenyl)-3-oxo-4-aza-5α-androst-1-ene-17β-carboxamide]",10 to 1000 nM,> 1000 nM,> 1000 nM,
"C[C@]12C=CC(=O)N[C@@H]1CC[C@@H]1[C@@H]2CC[C@]2(C)[C@@H](C(=O)Nc3ccc(OCCCCCCNc4cccc5c4C(=O)N(C4CCC(=O)NC4=O)C5=O)cc3)CC[C@@H]12 (stereo partly drawn) [C21, N-(4-((6-((4-(2-(3-(2,6-dioxopiperidine))-isoindole-1,3-dione))amino)hexyl)oxy)phenyl)-3-oxo-4-aza-5α-androst-1-ene-17β-carboxamide]",> 1000 nM,> 1000 nM,> 1000 nM,
